This is an account of results in the supplement of paper PMC10307832.

What all share (assay): relative viability (nuclei count vs DMSO), 5 days (fraction); higher = more cells survive
Compound in experiment [1]: CC1=C(C(=O)N2C=CSC2=N1)CCN3CCC(=C(C4=CC=CC=C4)C5=CC=C(C=C5)F)CC3 + CC1(C)CCC(c2ccc(Cl)cc2)=C(CN2CCN(c3ccc(C(=O)NS(=O)(=O)c4ccc(N[C@H](CCN5CCOCC5)CSc5ccccc5)c(S(=O)(=O)C(F)(F)F)c4)cc3)CC2)C1 [Navitoclax] (partner 0.5 µM)
A digest of the protocol: (§1)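 Relative viability divides the nuclei count in treated wells by that in vehicle wells. Lung cancer cell lines were seeded in 1536-well plates, dosed by pin tool the next day, and fixed and stained after 5 days in one step with final 0.05% Triton X-100, 1% formaldehyde and 1 ug/ml Hoechst. Dosing was a single drug or a fixed anchor-drug dose plus five library-drug doses (not always all listed) in √10 steps, and values are medians of duplicate plates imaged at 4×.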

Compound in experiment [2]: CC1=C(C(=O)N2C=CSC2=N1)CCN3CCC(=C(C4=CC=CC=C4)C5=CC=C(C=C5)F)CC3 + N=C(N)NC(=N)NCCc1ccccc1 [Phenformin] (partner 250 µM)
A digest of the protocol: as §1

Compound in experiment [3]: CC1=C(C(=O)N2C=CSC2=N1)CCN3CCC(=C(C4=CC=CC=C4)C5=CC=C(C=C5)F)CC3 + Nc1nc2[nH]cc(CCc3ccc(C(=O)N[C@@H](CCC(=O)O)C(=O)O)cc3)c2c(=O)[nH]1 [Pemetrexed] (partner 0.2 µM)
A digest of the protocol: as §1

Compound in experiment [4]: CC1=C(C(=O)N2C=CSC2=N1)CCN3CCC(=C(C4=CC=CC=C4)C5=CC=C(C=C5)F)CC3 + CC(=O)Nc1cccc(-n2c(=O)n(C3CC3)c(=O)c3c(Nc4ccc(I)cc4F)n(C)c(=O)c(C)c32)c1 [Trametinib] (partner 0.02 µM)
A digest of the protocol:
as §1

Turning to NCI-H1355, the relative viability came to 0.976 in experiment [1] (first compound 0.08 µM); 0.984 in experiment [1] (first compound 0.253 µM); 0.996 in experiment [1] (first compound 0.8 µM); 1.09 in experiment [1] (first compound 2.53 µM); 0.787 in experiment [1] (first compound 8 µM); 0.428 in experiment [2] (first compound 0.08 µM). Besides, the relative viability in experiment [2] (first compound 0.253 µM) was 0.442; in experiment [2] (first compound 0.8 µM) it was 0.441; in experiment [2] (first compound 2.53 µM) it was 0.427; in experiment [2] (first compound 8 µM) it was 0.391; in experiment [3] (first compound 0.08 µM), 1.09; in experiment [3] (first compound 0.253 µM), 1.04. Moreover, the relative viability in experiment [3] (first compound 0.8 µM) was 1.02; in experiment [3] (first compound 2.53 µM) it was 1.1; in experiment [3] (first compound 8 µM) it was 0.97; in experiment [4] (first compound 0.08 µM) it was 0.49; in experiment [4] (first compound 0.253 µM), 0.444; in experiment [4] (first compound 0.8 µM) it was 0.407. Moreover, the values for the relative viability in experiment [4] (first compound 2.53 µM) and in experiment [4] (first compound 8 µM) were 0.408 and 0.421, respectively.

As to NCI-H596, the relative viability in experiment [1] (first compound 0.08 µM) was 0.85; in experiment [1] (first compound 0.253 µM), 1.17; in experiment [1] (first compound 0.8 µM) it was 1.04; in experiment [1] (first compound 2.53 µM) it was 1.1; in experiment [1] (first compound 8 µM), 0.556; in experiment [2] (first compound 0.08 µM), 0.702. Also, the relative viability in experiment [2] (first compound 0.253 µM) was found to be 0.826; in experiment [2] (first compound 0.8 µM), 0.915; in experiment [2] (first compound 2.53 µM) it was 0.74; in experiment [2] (first compound 8 µM), 0.578; in experiment [3] (first compound 0.08 µM) it was 0.49; in experiment [3] (first compound 0.253 µM), 0.511. The relative viability in experiment [3] (first compound 0.8 µM) was determined as 0.488; in experiment [3] (first compound 2.53 µM), 0.584; in experiment [3] (first compound 8 µM) it was 0.466; in experiment [4] (first compound 0.08 µM), 0.703; in experiment [4] (first compound 0.253 µM), 0.815; in experiment [4] (first compound 0.8 µM), 0.913. In addition, the values for the relative viability in experiment [4] (first compound 2.53 µM) and in experiment [4] (first compound 8 µM) were 0.863 and 0.708, respectively.

On to NCI-H322M, for which the relative viability amounted to 0.987 in experiment [1] (first compound 0.08 µM); 1.29 in experiment [1] (first compound 0.253 µM); 1.34 in experiment [1] (first compound 0.8 µM); 1.36 in experiment [1] (first compound 2.53 µM); 0.889 in experiment [1] (first compound 8 µM); 0.745 in experiment [2] (first compound 0.08 µM). The relative viability in experiment [2] (first compound 0.253 µM) worked out at 0.785; in experiment [2] (first compound 0.8 µM) it was 0.737; in experiment [2] (first compound 2.53 µM), 0.773; in experiment [2] (first compound 8 µM), 0.873; in experiment [3] (first compound 0.08 µM) it was 0.686; in experiment [3] (first compound 0.253 µM) it was 0.622. Also, the relative viability in experiment [3] (first compound 0.8 µM) came to 0.555; in experiment [3] (first compound 2.53 µM) it was 0.706; in experiment [3] (first compound 8 µM) it was 0.683; in experiment [4] (first compound 0.08 µM) it was 0.478; in experiment [4] (first compound 0.253 µM), 0.424; in experiment [4] (first compound 0.8 µM), 0.558. The relative viability in experiment [4] (first compound 2.53 µM) came out at 0.604; in experiment [4] (first compound 8 µM), 0.469.

In the case of LC-2-ad, the relative viability in experiment [1] (first compound 0.08 µM) came out at 0.384; in experiment [1] (first compound 0.253 µM), 0.393; in experiment [1] (first compound 0.8 µM), 0.489; in experiment [1] (first compound 2.53 µM), 0.5; in experiment [1] (first compound 8 µM), 0.335; in experiment [2] (first compound 0.08 µM), 0.656. In addition, the relative viability in experiment [2] (first compound 0.253 µM) stood at 0.656; in experiment [2] (first compound 0.8 µM), 0.543; in experiment [2] (first compound 2.53 µM), 0.62; in experiment [2] (first compound 8 µM), 0.566; in experiment [3] (first compound 0.08 µM), 0.247; in experiment [3] (first compound 0.253 µM) it was 0.268. Also, the relative viability in experiment [3] (first compound 0.8 µM) stood at 0.277; in experiment [3] (first compound 2.53 µM), 0.271; in experiment [3] (first compound 8 µM), 0.281; in experiment [4] (first compound 0.08 µM) it was 0.943; in experiment [4] (first compound 0.253 µM), 0.98; in experiment [4] (first compound 0.8 µM) it was 0.938. Further, the relative viability came to 0.95 in experiment [4] (first compound 2.53 µM) and 0.606 in experiment [4] (first compound 8 µM).

In the case of ChaGo-K-1, the relative viability in experiment [1] (first compound 0.08 µM) was determined as 1.19; in experiment [1] (first compound 0.253 µM), 0.888; in experiment [1] (first compound 0.8 µM), 0.663; in experiment [1] (first compound 2.53 µM), 1.69; in experiment [1] (first compound 8 µM), 1.11; in experiment [2] (first compound 0.08 µM), 0.561. The relative viability in experiment [2] (first compound 0.253 µM) came out at 0.462; in experiment [2] (first compound 0.8 µM), 0.53; in experiment [2] (first compound 2.53 µM) it was 0.539; in experiment [2] (first compound 8 µM), 0.431; in experiment [3] (first compound 0.08 µM) it was 0.277; in experiment [3] (first compound 0.253 µM), 0.27. Besides, the relative viability in experiment [3] (first compound 0.8 µM) turned out to be 0.259; in experiment [3] (first compound 2.53 µM) it was 0.267; in experiment [3] (first compound 8 µM), 0.236; in experiment [4] (first compound 0.08 µM), 0.821; in experiment [4] (first compound 0.253 µM), 0.926; in experiment [4] (first compound 0.8 µM), 0.961. For the same cell line, the relative viability in experiment [4] (first compound 2.53 µM) came out at 0.963; in experiment [4] (first compound 8 µM), 0.673.

Consider HOP-62, for which the relative viability in experiment [1] (first compound 0.08 µM) came to 0.516; in experiment [1] (first compound 0.253 µM) it was 0.989; in experiment [1] (first compound 0.8 µM), 1.23; in experiment [1] (first compound 2.53 µM), 0.796; in experiment [1] (first compound 8 µM), 0.466; in experiment [2] (first compound 0.08 µM) it was 0.711. For the same cell line, the relative viability turned out to be 0.774 in experiment [2] (first compound 0.253 µM); 0.678 in experiment [2] (first compound 0.8 µM); 0.491 in experiment [2] (first compound 2.53 µM); 0.381 in experiment [2] (first compound 8 µM); 0.335 in experiment [3] (first compound 0.08 µM); 0.315 in experiment [3] (first compound 0.253 µM). Further, the relative viability was determined as 0.306 in experiment [3] (first compound 0.8 µM); 0.336 in experiment [3] (first compound 2.53 µM); 0.12 in experiment [3] (first compound 8 µM); 0.34 in experiment [4] (first compound 0.08 µM); 0.365 in experiment [4] (first compound 0.253 µM); 0.37 in experiment [4] (first compound 0.8 µM). Also, the relative viability was 0.422 in experiment [4] (first compound 2.53 µM) and 0.225 in experiment [4] (first compound 8 µM).
